From PMC6792352, “Limited Chemical Structural Diversity Found to Modulate Thyroid Hormone Receptor in the Tox21 Chemical Library” (Environmental Health Perspectives, 2019)
Structures can show the parent of a compound that is named as a salt.

Test: in vitro
Conditions: rat, gh3-tre-luc cells, AC50 (uM) modified / 1000

Row | Structure (SMILES) | CC50 at 24 h
1 | O=C(O)c1ccc(O)cc1 [4-Hydroxybenzoic acid] | > 90 µM
2 | CCNc1nc(NC(C)C(C)C)nc(SC)n1 (centres unmarked) [Dimethametryn] | > 90 µM
3 | CCCCCCCCCCCCCCCC [Hexadecane] | > 90 µM
4 | O=CC=C(c1ccccc1)c1ccccc1 [3,3-Diphenylacrylaldehyde] | 42.2 µM
5 | CC(C)N(c1ccccc1)C(C)C [N,N-Diisopropylaniline] | > 90 µM
6 | Oc1nc(Cl)c(Cl)cc1Cl [3,5,6-Trichloro-2-pyridinol] | > 90 µM
7 | O=C1CCCCCN1SSN1CCCCCC1=O [1,1'-Disulfanediyldiazepan-2-one] | 53.9 µM
8 | CN(C)Cc1ccccc1 [N,N-Dimethylbenzylamine] | > 50 µM
9 | Cc1ccc(OC(=O)c2ccccc2O)cc1 [Salicylic acid p-tolyl ester] | > 90 µM
10 | C[C@@H](N)C(=O)c1ccccc1 [(R)-(+)-Cathinone hydrochloride] | > 100 µM
11 | CCC(C)=NO [2-Butanone oxime] | > 90 µM
12 | Cc1cccc(C)c1NC(=O)CC12CCCN1CCC2 [Pilsicainide] | > 50 µM
13 | Nc1ccc2ccccc2c1S(=O)(=O)O [2-Amino-1-naphthalenesulfonic acid] | > 90 µM
14 | CCCCOC(=O)CC [Butyl propionate] | > 90 µM
15 | CCC(C)C(C)=O (centres unmarked) [3-Methyl-2-pentanone] | > 90 µM
16 | CCCCCCCCn1sc(Cl)c(Cl)c1=O [4,5-Dichloro-2-octyl-3(2H)-isothiazolone] | 12.7 µM
17 | CN1CCOCC1 [4-Methylmorpholine] | > 90 µM
18 | CC(C)CC(O)Cc1ccccc1 (centres unmarked) [4-Methyl-1-phenyl-2-pentanol] | > 90 µM
19 | CCCCCCC(=O)O[C@H]1CC[C@H]2[C@@H]3CCc4cc(O)ccc4[C@H]3CC[C@]12C [Estradiol enanthate] | > 50 µM
20 | CC(C)NCC(O)c1ccccc1Cl (centres unmarked) [Clorprenaline hydrochloride] | > 50 µM
21 | NCC(O)c1cccc(O)c1 (centres unmarked) [Norfenefrine hydrochloride] | > 50 µM
22 | C=Cc1ccc(C=C)cc1 [1,4-Divinylbenzene] | > 100 µM
23 | COC(=O)CCCCCCCC(=O)OC [Dimethyl nonanedioate] | > 90 µM

Row | Structure (SMILES) | CC50 at 24 h
24 | COc1cc2c(Nc3ccc(Br)cc3F)ncnc2cc1OCC1CCN(C)CC1 [Vandetanib] | 3.74 µM
25 | C=C[Si](OC(C)=O)(OC(C)=O)OC(C)=O [Ethenylsilanetriyl triacetate] | > 90 µM
26 | N=C(N)c1ccc(OCCCOc2ccc(C(=N)N)cc2)cc1 [Propamidine] | > 50 µM
27 | Cc1cc(S(=O)(=O)O)c(N)cc1Cl [2-Amino-4-chloro-5-methylbenzenesulfonic acid] | > 90 µM
28 | CCCCCCC(O)CCCCCCCCCCC(=O)OC (centres unmarked) [Methyl 12-hydroxyoctadecanoate] | > 90 µM
29 | Cc1ccc(C#N)cc1 [4-Methylbenzonitrile] | > 90 µM
30 | Cc1cc(O)ccc1N [4-Amino-m-cresol] | 29.9 µM
31 | Brc1ccccc1 [Bromobenzene] | > 90 µM
32 | CCCCCOC(=O)Nc1nc(=O)n([C@@H]2O[C@H](C)[C@@H](O)[C@H]2O)cc1F [Capecitabine] | > 50 µM
33 | O=[N+]([O-])c1cc(I)c(O)c(I)c1 [2,6-Diiodo-4-nitrophenol] | 24.5 µM
34 | CN(C)c1ccncc1 [N,N-dimethylpyridin-4-amine] | > 90 µM
35 | CC(=O)c1ccc([N+](=O)[O-])cc1 [4-Nitroacetophenone] | > 90 µM
36 | Cc1c(N)c(=O)n(-c2ccccc2)n1C [Ampyrone] | > 20 µM
37 | CC(C)(C)NCC(O)c1cc(O)cc(O)c1 (centres unmarked) [Terbutaline hemisulfate] | > 50 µM
38 | NCCO/C=C/[C@H](N)C(=O)O [Aviglycine hydrochloride] | > 50 µM
39 | CCCOC/C(=N\c1ccc(Cl)cc1C(F)(F)F)n1ccnc1 [Triflumizole] | 58.4 µM
40 | NC(=O)c1ccccc1N [2-Aminobenzamide] | > 90 µM
41 | Cc1cccc(C(=O)O)c1[N+](=O)[O-] [3-Methyl-2-nitrobenzoic acid] | > 90 µM
42 | C=C1CC[C@H](O)C/C1=C/C=C1\CCC[C@]2(C)[C@@H]([C@H](C)CC[C@@H](O)C(C)(C)O)CC[C@@H]12 [24R,25-Dihydroxyvitamin D3] | 23.4 µM
43 | CNC(C)Cc1ccccc1 (racemic) [dl-Methamphetamine hydrochloride] | > 90 µM
44 | Cc1cccc(C)c1 [m-Xylene] | > 90 µM
45 | C[C@H]1CC[C@]2(NC1)O[C@H]1C[C@H]3[C@@H]4CC[C@H]5C[C@@H](O[C@@H]6O[C@H](CO)[C@H](O[C@@H]7O[C@H](CO)[C@@H](O)[C@H](O[C@@H]8OC[C@@H](O)[C@H](O)[C@H]8O)[C@H]7O[C@@H]7O[C@H](CO)[C@@H](O)[C@H](O)[C@H]7O)[C@H](O)[C@H]6O)CC[C@]5(C)[C@H]4CC[C@]3(C)[C@H]1[C@@H]2C [alpha-Tomatine] | 2.38 µM
46 | O=C(CCCCC(=O)Nc1c(I)cc(I)c(C(=O)O)c1I)Nc1c(I)cc(I)c(C(=O)O)c1I [Iodipamide] | > 50 µM

Row | Structure (SMILES) | CC50 at 24 h
47 | Cc1cc(O)ccc1O [Methylhydroquinone] | 14.8 µM
48 | CCN(CC)CCOc1ccc2nc(N(C)C)sc2c1 [Diamthazole] | > 50 µM
49 | O=C(O)[C@H](CC(=O)N1C[C@H]2CCCC[C@H]2C1)Cc1ccccc1 [Mitiglinide calcium dihydrate] | > 50 µM
50 | CNC(C)C(O)c1ccc(O)cc1 (centres unmarked) [1-(4-Hydroxyphenyl)-2-methyl-2-methylaminoethanol hydrochloride] | > 50 µM
51 | C1=Cc2ccccc2C1 [Indene] | > 90 µM
52 | C=C(C)CN(CC)c1c([N+](=O)[O-])cc(C(F)(F)F)cc1[N+](=O)[O-] [Ethalfluralin] | > 90 µM
53 | CCCCCCCC/C=C\CCCCCCCC(=O)OCC [Ethyl oleate] | > 90 µM
54 | C[C@]12CCC(=O)C=C1CC[C@@H]1[C@@H]2[C@@H](O)C[C@@]2(C)[C@H]1CC[C@]2(O)C(=O)COP(=O)(O)O [Hydrocortisone sodium phosphate] | > 50 µM
55 | CCCCNC(=O)NCCCC [N,N'-Dibutylurea] | > 90 µM
56 | COc1cc(Cl)ccc1Cl [2,5-Dichloroanisole] | > 90 µM
57 | CON(C)C(=O)Nc1ccc(Cl)c(Cl)c1 [Linuron] | > 90 µM
58 | O=[N+]([O-])c1cccc(S(=O)(=O)O)c1 [Sodium 3-nitrobenzenesulfonate] | > 90 µM
59 | Cc1nc2ccccn2c(=O)c1CCN1CCC(C(=O)c2ccc(F)cc2)CC1 [Pirenperone] | > 50 µM
60 | O=C(/C=C/c1ccc(O)c(O)c1)O[C@@H](C(=O)O)[C@@H](OC(=O)/C=C/c1ccc(O)c(O)c1)C(=O)O [L-Cichoric acid] | > 90 µM
61 | CCN(CC)CCC(=O)N1c2ccccc2Sc2ccc(Cl)cc21 [Chloracizine] | 23.2 µM
62 | CN(C)CCCN1c2ccccc2Sc2ccccc21 [Promazine hydrochloride] | 4.95 µM
63 | C=CCOc1nc(OCC=C)nc(OCC=C)n1 [2,4,6-Tris(allyloxy)-1,3,5-triazine] | > 90 µM
64 | C=CC(C)(O)CC/C=C(/C)CCC=C(C)C (stereo not drawn) [cis-Nerolidol] | > 90 µM
65 | NC(=O)Cc1cccc(C(=O)c2ccccc2)c1N [Nepafenac] | > 50 µM
66 | CSCC[C@H](NC(=O)[C@H](Cc1c[nH]c2ccccc12)NC(=O)CCNC(=O)OC(C)(C)C)C(=O)N[C@@H](CC(=O)O)C(=O)N[C@@H](Cc1ccccc1)C(N)=O [Pentagastrin] | > 50 µM
67 | CCN(CC)C(=O)N1CCN(C)CC1 [Diethylcarbamazine citrate] | > 20 µM
68 | O=C1CC(=O)NC(=O)N1 [Barbituric acid] | > 90 µM

Same assay, conditions: rat, gh3-tre-luc cells, AC50 (uM) modified / 1000, Tox21_110001=Tox21_112123; viability, 1 nM T3 present, 24 h

Row | Structure (SMILES) | CC50 at 24 h
69 | CNC(=O)NC(O)C(Cl)(Cl)Cl (centres unmarked) [Mecloralurea] | > 50 µM

Same assay, conditions: rat, gh3-tre-luc cells, AC50 (uM) modified / 1000, Tox21_110001=Tox21_113513; viability, 1 nM T3 present, 24 h

Row | Structure (SMILES) | CC50 at 24 h
70 | C[C@@H]1[C@@H]2Cc3ccc(O)cc3[C@@]1(C)CCN2CC1CC1 [(+)-Cyclazocine] | > 50 µM

Same assay, conditions: rat, gh3-tre-luc cells, AC50 (uM) modified / 1000, Tox21_110001=Tox21_200065; viability, 1 nM T3 present, 24 h

Row | Structure (SMILES) | CC50 at 24 h
71 | C[N+](C)(C)CCCl [Chlormequat chloride] | > 90 µM

Same assay, conditions: rat, gh3-tre-luc cells, AC50 (uM) modified / 1000, Tox21_110001=Tox21_200297; viability, 1 nM T3 present, 24 h

Row | Structure (SMILES) | CC50 at 24 h
72 | Oc1ccc(Cl)c(Cl)c1Cl [2,3,4-Trichlorophenol] | > 100 µM

Same assay, conditions: rat, gh3-tre-luc cells, AC50 (uM) modified / 1000, Tox21_110001=Tox21_200336; viability, 1 nM T3 present, 24 h

Row | Structure (SMILES) | CC50 at 24 h
73 | CC(C)(Cl)[N+](=O)[O-] [2-Chloro-2-nitropropane] | > 90 µM

Same assay, conditions: rat, gh3-tre-luc cells, AC50 (uM) modified / 1000, Tox21_110001=Tox21_200757; viability, 1 nM T3 present, 24 h

Row | Structure (SMILES) | CC50 at 24 h
74 | CN(C)c1ccc(N=Nc2ccccc2)cc1 [4-(Dimethylamino)azobenzene] | > 90 µM

Same assay, conditions: rat, gh3-tre-luc cells, AC50 (uM) modified / 1000, Tox21_110001=Tox21_201217; viability, 1 nM T3 present, 24 h

Row | Structure (SMILES) | CC50 at 24 h
75 | O=Cc1ccc(Cl)cc1Cl [2,4-Dichlorobenzaldehyde] | > 90 µM

Same assay, conditions: rat, gh3-tre-luc cells, AC50 (uM) modified / 1000, Tox21_110001=Tox21_201305; viability, 1 nM T3 present, 24 h

Row | Structure (SMILES) | CC50 at 24 h
76 | O=C/C(Cl)=C(/Cl)C(=O)O [Mucochloric acid] | 74 µM

Same assay, conditions: rat, gh3-tre-luc cells, AC50 (uM) modified / 1000, Tox21_110001=Tox21_201663; viability, 1 nM T3 present, 24 h

Row | Structure (SMILES) | CC50 at 24 h
77 | CN(C)N=O [N-Nitrosodimethylamine] | > 90 µM

Same assay, conditions: rat, gh3-tre-luc cells, AC50 (uM) modified / 1000, Tox21_110001=Tox21_301355; viability, 1 nM T3 present, 24 h

Row | Structure (SMILES) | CC50 at 24 h
78 | CCOP(=O)(Sc1ccccc1)Sc1ccccc1 [Edifenphos] | > 90 µM

Same assay, conditions: rat, gh3-tre-luc cells, AC50 (uM) modified / 1000, Tox21_110001=Tox21_301917; viability, 1 nM T3 present, 24 h

Row | Structure (SMILES) | CC50 at 24 h
79 | CCOP(=O)(O)C(N)=O [Fosamine ammonium] | > 90 µM

Same assay, conditions: rat, gh3-tre-luc cells, AC50 (uM) modified / 1000, Tox21_110001=Tox21_302857; viability, 1 nM T3 present, 24 h

Row | Structure (SMILES) | CC50 at 24 h
80 | O=C/C(Cl)=C(/Cl)C(=O)O [Mucochloric acid] | 63.6 µM
